Reference: ChEMBL document CHEMBL3991601, “The target landscape of clinical kinase drugs” (Science, 2017)
Activity calls are given as the source filed them. For most assays here, no stated cut-off is given here; in the data, actives have a measured Kd and inactives only a lower limit.

Legend:
[1] = molecular target: T1, Ferrochelatase, mitochondrial (Homo sapiens, UniProt P22830)
T1 sequence (P22830 whole entry): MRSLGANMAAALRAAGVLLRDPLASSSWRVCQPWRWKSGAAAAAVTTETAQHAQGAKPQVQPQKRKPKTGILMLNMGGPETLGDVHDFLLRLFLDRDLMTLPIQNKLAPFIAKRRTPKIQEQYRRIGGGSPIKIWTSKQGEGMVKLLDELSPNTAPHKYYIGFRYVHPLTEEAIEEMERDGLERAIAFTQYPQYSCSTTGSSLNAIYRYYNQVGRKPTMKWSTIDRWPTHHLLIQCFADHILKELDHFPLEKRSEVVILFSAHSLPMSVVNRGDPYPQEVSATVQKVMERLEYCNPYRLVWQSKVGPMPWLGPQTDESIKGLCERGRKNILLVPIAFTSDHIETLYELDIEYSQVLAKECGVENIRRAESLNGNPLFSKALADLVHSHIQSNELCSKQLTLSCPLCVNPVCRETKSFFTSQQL

[2] = molecular target: T2, Cyclin-G-associated kinase (Homo sapiens, UniProt O14976)
T2 sequence (O14976 whole entry): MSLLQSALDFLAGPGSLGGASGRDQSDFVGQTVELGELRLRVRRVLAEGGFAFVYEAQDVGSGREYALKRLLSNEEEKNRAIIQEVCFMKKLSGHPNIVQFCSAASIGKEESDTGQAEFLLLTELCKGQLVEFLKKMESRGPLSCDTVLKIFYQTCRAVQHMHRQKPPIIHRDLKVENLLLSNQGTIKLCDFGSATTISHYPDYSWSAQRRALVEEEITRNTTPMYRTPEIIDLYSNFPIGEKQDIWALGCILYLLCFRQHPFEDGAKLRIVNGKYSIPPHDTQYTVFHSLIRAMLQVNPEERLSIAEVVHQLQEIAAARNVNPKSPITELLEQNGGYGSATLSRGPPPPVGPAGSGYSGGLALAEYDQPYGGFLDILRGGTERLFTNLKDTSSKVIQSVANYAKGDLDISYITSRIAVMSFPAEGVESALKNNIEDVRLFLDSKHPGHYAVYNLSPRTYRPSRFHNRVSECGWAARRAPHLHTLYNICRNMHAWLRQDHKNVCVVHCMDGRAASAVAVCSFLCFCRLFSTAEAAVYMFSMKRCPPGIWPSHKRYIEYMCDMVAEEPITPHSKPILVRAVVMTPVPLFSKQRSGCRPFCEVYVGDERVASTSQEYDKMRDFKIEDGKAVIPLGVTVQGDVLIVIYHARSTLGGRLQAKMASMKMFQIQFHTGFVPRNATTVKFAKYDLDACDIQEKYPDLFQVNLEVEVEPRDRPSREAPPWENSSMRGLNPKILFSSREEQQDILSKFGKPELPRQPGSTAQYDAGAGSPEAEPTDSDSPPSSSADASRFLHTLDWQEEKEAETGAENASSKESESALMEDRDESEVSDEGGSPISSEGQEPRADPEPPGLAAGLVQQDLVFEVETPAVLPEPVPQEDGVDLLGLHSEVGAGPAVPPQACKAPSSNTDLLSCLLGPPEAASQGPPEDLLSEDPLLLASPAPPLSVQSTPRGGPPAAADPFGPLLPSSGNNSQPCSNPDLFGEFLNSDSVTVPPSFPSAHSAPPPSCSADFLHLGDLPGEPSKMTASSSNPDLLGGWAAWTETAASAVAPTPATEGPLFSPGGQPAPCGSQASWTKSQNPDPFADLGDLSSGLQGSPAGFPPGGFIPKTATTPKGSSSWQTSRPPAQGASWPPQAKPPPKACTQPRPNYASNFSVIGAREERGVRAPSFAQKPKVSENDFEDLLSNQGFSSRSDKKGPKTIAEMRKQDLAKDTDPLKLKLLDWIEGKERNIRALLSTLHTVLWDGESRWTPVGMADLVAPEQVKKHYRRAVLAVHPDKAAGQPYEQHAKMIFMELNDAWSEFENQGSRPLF

[3] = molecular target: Tyrosine-protein kinase Lck (Homo sapiens, UniProt P06239)
Tyrosine-protein kinase Lck, sequence (P06239 whole entry): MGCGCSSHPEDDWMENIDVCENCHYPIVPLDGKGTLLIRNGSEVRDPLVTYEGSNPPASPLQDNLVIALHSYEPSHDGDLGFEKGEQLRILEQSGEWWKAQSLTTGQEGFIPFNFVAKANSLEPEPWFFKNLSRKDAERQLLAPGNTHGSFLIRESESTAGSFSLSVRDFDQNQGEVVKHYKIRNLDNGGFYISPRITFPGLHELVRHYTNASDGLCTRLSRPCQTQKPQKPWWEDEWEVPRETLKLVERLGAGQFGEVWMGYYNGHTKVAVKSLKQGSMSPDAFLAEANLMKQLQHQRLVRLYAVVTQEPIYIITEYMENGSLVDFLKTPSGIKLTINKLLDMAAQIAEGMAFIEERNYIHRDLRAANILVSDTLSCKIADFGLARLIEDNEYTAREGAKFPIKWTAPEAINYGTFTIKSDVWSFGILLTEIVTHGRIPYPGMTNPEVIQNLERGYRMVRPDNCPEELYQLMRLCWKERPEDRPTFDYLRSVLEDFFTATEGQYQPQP

[4] = molecular target: Mitogen-activated protein kinase kinase kinase 1 (Homo sapiens, UniProt Q13233)
Mitogen-activated protein kinase kinase kinase 1, sequence (Q13233 whole entry): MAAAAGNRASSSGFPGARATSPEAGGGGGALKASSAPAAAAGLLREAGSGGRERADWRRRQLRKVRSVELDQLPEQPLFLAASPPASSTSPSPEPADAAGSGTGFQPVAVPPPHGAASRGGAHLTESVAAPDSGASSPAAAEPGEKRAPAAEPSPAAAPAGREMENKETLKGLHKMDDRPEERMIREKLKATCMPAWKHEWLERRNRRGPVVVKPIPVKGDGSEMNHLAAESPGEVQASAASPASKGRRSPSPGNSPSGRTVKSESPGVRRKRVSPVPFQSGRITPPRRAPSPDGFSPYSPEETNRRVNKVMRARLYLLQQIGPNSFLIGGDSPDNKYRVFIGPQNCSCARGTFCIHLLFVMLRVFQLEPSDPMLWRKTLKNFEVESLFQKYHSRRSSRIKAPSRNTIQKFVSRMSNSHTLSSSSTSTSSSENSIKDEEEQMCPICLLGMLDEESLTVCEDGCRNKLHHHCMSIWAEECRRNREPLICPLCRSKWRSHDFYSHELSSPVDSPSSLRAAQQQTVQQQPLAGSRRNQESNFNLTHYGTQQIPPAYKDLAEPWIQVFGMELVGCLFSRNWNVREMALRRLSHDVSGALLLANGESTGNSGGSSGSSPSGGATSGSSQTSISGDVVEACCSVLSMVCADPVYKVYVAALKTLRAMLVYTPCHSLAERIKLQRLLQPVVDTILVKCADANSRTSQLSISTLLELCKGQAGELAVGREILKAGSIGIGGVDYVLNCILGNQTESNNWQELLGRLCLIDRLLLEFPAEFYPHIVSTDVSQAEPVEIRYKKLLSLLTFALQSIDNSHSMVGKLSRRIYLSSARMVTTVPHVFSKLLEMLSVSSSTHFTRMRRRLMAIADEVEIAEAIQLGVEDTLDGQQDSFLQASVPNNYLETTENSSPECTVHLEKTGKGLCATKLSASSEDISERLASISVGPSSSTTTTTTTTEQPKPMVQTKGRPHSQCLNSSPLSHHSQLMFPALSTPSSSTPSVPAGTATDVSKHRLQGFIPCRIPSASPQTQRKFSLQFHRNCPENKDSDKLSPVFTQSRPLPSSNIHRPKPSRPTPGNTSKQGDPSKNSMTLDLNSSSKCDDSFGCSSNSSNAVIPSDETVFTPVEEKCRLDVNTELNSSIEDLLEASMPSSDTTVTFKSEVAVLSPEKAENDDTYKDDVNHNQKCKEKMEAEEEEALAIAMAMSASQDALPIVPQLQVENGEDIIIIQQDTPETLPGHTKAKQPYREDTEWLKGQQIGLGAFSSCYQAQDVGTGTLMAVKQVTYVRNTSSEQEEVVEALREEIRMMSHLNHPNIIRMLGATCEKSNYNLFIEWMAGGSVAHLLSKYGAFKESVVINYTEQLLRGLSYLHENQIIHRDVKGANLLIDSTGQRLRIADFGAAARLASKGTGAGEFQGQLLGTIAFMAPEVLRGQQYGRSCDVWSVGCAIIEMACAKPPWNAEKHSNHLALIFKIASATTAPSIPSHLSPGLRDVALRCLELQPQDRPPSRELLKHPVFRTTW

[5] = molecular target: T3, DNA replication licensing factor MCM4 (Homo sapiens, UniProt P33991)
T3 sequence (P33991 whole entry): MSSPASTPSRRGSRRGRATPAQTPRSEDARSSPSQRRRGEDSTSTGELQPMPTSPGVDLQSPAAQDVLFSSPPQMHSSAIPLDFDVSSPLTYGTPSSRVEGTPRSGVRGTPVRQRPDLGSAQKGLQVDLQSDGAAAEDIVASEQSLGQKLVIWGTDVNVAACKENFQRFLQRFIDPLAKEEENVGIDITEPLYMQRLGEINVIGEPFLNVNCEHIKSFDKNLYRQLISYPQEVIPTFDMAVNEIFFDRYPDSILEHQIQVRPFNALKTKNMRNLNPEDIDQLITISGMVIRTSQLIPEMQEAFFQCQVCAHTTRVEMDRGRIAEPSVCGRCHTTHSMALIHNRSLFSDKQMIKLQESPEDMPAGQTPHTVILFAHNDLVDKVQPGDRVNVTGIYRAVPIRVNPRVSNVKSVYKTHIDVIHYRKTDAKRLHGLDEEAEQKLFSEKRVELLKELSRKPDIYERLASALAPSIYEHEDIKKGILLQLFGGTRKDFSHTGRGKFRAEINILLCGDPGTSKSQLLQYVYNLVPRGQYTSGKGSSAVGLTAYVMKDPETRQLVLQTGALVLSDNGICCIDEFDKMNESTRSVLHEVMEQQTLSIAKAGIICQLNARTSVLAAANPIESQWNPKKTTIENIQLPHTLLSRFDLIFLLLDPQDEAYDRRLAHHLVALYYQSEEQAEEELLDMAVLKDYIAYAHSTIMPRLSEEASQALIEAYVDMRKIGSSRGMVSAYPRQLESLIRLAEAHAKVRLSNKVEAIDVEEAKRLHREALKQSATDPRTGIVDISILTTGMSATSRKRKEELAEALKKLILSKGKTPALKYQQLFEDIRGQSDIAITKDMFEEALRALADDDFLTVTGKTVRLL

[6] = molecular target: Hepatocyte growth factor receptor (Homo sapiens, UniProt P08581)
Hepatocyte growth factor receptor, sequence (P08581 whole entry): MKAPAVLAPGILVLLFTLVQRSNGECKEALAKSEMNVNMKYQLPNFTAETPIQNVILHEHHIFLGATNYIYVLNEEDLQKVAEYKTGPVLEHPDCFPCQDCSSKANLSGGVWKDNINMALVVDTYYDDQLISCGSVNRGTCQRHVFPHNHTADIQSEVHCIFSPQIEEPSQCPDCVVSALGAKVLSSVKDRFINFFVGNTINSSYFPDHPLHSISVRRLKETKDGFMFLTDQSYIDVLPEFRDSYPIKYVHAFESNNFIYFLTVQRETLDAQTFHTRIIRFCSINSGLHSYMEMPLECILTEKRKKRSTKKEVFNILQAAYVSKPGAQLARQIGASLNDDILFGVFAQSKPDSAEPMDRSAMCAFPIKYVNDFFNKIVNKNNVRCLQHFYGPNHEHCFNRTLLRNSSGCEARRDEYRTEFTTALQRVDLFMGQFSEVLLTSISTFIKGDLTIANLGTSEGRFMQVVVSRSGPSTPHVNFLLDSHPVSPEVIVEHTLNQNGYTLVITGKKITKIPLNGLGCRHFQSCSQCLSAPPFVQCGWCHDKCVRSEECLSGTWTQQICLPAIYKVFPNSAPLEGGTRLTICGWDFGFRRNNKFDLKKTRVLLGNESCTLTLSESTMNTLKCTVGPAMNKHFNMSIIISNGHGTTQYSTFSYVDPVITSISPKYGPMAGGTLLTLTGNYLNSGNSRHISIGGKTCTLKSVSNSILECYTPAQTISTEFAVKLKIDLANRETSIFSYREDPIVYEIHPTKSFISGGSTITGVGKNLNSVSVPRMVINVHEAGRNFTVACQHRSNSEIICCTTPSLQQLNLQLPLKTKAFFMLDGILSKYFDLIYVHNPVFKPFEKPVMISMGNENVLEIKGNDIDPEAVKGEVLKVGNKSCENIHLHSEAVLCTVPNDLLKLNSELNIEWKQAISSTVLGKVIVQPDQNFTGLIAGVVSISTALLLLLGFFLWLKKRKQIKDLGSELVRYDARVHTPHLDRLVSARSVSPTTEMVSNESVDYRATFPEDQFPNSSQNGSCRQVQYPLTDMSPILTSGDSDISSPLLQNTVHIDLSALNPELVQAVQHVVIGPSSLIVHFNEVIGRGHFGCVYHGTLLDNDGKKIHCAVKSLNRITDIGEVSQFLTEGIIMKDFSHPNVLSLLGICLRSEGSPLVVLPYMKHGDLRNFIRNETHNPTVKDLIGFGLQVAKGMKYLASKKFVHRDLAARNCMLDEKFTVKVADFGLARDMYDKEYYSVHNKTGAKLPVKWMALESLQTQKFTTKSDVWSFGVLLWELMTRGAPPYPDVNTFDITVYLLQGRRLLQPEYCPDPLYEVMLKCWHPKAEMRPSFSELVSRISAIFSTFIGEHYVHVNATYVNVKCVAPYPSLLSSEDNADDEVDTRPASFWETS

[7] = molecular target: Protein-tyrosine kinase 6 (Homo sapiens, UniProt Q13882)
Protein-tyrosine kinase 6, sequence (Q13882 whole entry): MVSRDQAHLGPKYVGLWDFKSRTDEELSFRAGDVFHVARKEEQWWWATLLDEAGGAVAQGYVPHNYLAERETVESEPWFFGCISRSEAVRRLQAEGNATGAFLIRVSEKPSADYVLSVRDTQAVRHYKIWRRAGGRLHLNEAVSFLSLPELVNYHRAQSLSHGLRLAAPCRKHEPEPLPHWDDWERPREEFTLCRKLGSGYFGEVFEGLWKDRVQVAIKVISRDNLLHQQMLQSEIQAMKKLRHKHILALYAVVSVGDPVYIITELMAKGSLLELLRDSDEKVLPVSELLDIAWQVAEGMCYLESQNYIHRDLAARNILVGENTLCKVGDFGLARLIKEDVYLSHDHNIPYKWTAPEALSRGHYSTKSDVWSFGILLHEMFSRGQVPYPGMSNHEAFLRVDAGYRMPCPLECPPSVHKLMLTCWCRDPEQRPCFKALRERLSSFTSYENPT

| Compound | Kd [1] | Kd [2] | Kd [3] | Kd [4] | Kd [5] | Kd [6] | Kd [7] |
| --- | --- | --- | --- | --- | --- | --- | --- |
| O=C(Cc1ccc(-c2ccc(OCCN3CCOCC3)cc2)cn1)NCc1ccccc1 [TIRBANIBULIN] | > 30 µM (inactive) | > 30 µM (inactive) | > 30 µM (inactive) | > 30 µM (inactive) | > 30 µM (inactive) | > 30 µM (inactive) | > 30 µM (inactive) |
| Cc1cc(Nc2ncnc3ccc(NC4=NC(C)(C)CO4)cc23)ccc1Oc1ccn2ncnc2c1 [TUCATINIB] | 3.91 µM (active) | > 30 µM (inactive) | > 30 µM (inactive) | > 30 µM (inactive) | > 30 µM (inactive) | > 30 µM (inactive) | > 30 µM (inactive) |
| CC(C)c1cc(CNc2nc(Nc3cc(C4CC4)[nH]n3)cc(N3CCN(C)CC3)n2)on1 [XL-228] | > 30 µM (inactive) | > 30 µM (inactive) | 0.166 µM (active) | > 30 µM (inactive) | > 30 µM (inactive) | > 30 µM (inactive) | > 30 µM (inactive) |

The next lines start with the values.

| Kd [1] | Kd [2] | Kd [3] | Kd [4] | Kd [5] | Kd [6] | Kd [7] | Compound |
| --- | --- | --- | --- | --- | --- | --- | --- |
| > 30 µM (inactive) | 0.615 µM (active) | 0.207 µM (active) | 1.74 µM (active) | > 30 µM (inactive) | > 30 µM (inactive) | 0.172 µM (active) | COc1cc2c(Nc3ccc(Cl)c(Cl)c3F)ncnc2cc1OC[C@@H]1C[C@@H]2CN(C)C[C@@H]2C1 [TESEVATINIB] |
| > 30 µM (inactive) | > 30 µM (inactive) | > 30 µM (inactive) | > 30 µM (inactive) | > 30 µM (inactive) | 0.511 µM (active) | > 30 µM (inactive) | O=C1NC(=O)[C@@H](c2cn3c4c(cccc24)CCC3)[C@@H]1c1c[nH]c2ccccc12 [TIVANTINIB] |
| > 30 µM (inactive) | > 30 µM (inactive) | > 30 µM (inactive) | 2.09 µM (active) | > 30 µM (inactive) | > 30 µM (inactive) | > 30 µM (inactive) | C[C@@H](NC(=O)c1ncnc(N)c1Cl)c1ncc(C(=O)Nc2cc(C(F)(F)F)c(Cl)cn2)s1 [TOVORAFENIB] |
| > 30 µM (inactive) | > 30 µM (inactive) | > 30 µM (inactive) | > 30 µM (inactive) | > 30 µM (inactive) | > 30 µM (inactive) | > 30 µM (inactive) | C[C@@H](N)c1ccc(C(=O)Nc2ccnc3[nH]ccc23)cc1 [Y-39983] |
| 0.243 µM | > 30 µM (inactive) | > 30 µM (inactive) | > 30 µM (inactive) | > 30 µM (inactive) | > 30 µM (inactive) | > 30 µM (inactive) | CN1C/C=C/CCOc2cccc(c2)-c2ccnc(n2)Nc2cccc(c2)C1 [ZOTIRACICLIB] |
